Experimental data: PMC4847013, “Pronounced peptide selectivity for melanoma through tryptophan end-tagging” (Scientific Reports, 2016)
Structures can show the parent of a compound that is named as a salt. Ends that are not written are not given here.

Assays:
fibroblasts = experiment: Lactate dehydrogenase (LDH) assay; type: cell-based; details: 48 h, 1% FBS, LDH release relative to 1% Triton X-100, triplicate, Fig. 8a
erythrocytes = experiment: Hemolysis assay; type: cell-based; details: 5% erythrocytes in PBS pH 7.4, 1 h, 37 °C, peptides 60 or 120 μM, % of 2% Triton X-100, triplicate, Fig. 8b
Procedure: EDTA-blood was centrifuged at 800 g for 10 min, whereafter plasma and buffy coat were removed. The erythrocytes were washed three times and resuspended to 5% in PBS, pH 7.4. The cells were then incubated with end-over-end rotation for 1 h at 37 °C in the presence of peptides (60 or 120 μM). 2% Triton X-100 (Sigma-Aldrich, St. Louis, USA) served as positive control. The samples were then centrifuged at 800 g for 10 min. The absorbance of hemoglobin release was measured at 540 nm and is expressed as % of Triton X-100 induced hemolysis. Results given represent mean values from triplicate measurements.

tumor cells = system: tumor cells; set-up: method as in PMID 20876209, PMID 20406839; details: cited from earlier work
Description: However, since it is taken up by tumor cells through passive diffusion, the overall response rate of doxorubicin is only about 30%[51][52].

Compound | Concentration up to which no significant toxicity is seen (LDH release) (fibroblasts) | Concentration up to which hemolysis is very low, at the background level of the negative control (erythrocytes) | overall response rate (tumor cells)
GRRPRPRPRPWWWW [GRR10W4] | at least 50 μM | at least 120 μM | –
COc1cccc2c1C(=O)c1c(O)c3c(c(O)c1C2=O)C[C@@](O)(C(=O)CO)C[C@@H]3O[C@H]1C[C@H](N)[C@H](O)[C@H](C)O1 [doxorubicin, Doxorubicin hydrochloride] | – | – | about 30%
GRRPRPRPRP [GRR10] | at least 50 μM | at least 120 μM | –
